In this data set the target is APP. Kind of data set: mouse, dose not given. The conditions noted are these: ASO.

HELM strings list units from the 5' end as sugar, base in round brackets, then linkage (d deoxyribose, r ribose, m 2'-O-methyl, p phosphodiester). Strings are as the collection lists them; they lack the last nucleoside at the 3' end of the tested compound. [moe] = 2'-O-(2-methoxyethyl) (MOE); [sp] = phosphorothioate linkage; [m5C] = 5-methylcytosine

The substance “RNA1{[moe]([m5C])[sp].[moe](T)p.[moe]([m5C])p.[moe]([m5C])p.[moe](A)[sp].d(A)[sp].d(T)[sp].d(T)[sp].d(T)[sp].d(T)[sp].d(A)[sp].d(A)[sp].d([m5C])[sp].d(T)[sp].d(T)[sp].[moe](G)p.[moe]([m5C])p.[moe](A)[sp].[moe]([m5C])}$$$$ (last 3' nucleoside missing)” yielded a 3 h FOB score of 2.75 score 0-7.
Then “RNA1{[moe]([m5C])[sp].[moe](T)p.[moe]([m5C])p.[moe]([m5C])p.[moe](A)p.[moe](A)[sp].d(T)[sp].d(T)[sp].d(T)[sp].d(T)[sp].d(A)[sp].d(A)[sp].d([m5C])[sp].d(T)[sp].d(T)[sp].d(G)[sp].[moe]([m5C])p.[moe](A)[sp].[moe]([m5C])}$$$$ (last 3' nucleoside missing)”, with 0 score 0-7; and “RNA1{[moe]([m5C])[sp].[moe]([m5C])[sp].[moe]([m5C])p.[moe](A)p.[moe]([m5C])[sp].d(T)[sp].d(T)[sp].d([m5C])[sp].d([m5C])[sp].d([m5C])[sp].d(A)[sp].d(T)[sp].d(T)[sp].d([m5C])[sp].d(T)[sp].[moe](G)p.[moe](G)p.[moe](A)[sp].[moe]([m5C])}$$$$ (last 3' nucleoside missing)”, with 0 score 0-7; and “RNA1{[moe]([m5C])[sp].[moe]([m5C])p.[moe](A)p.[moe](A)p.[moe](A)[sp].d(G)[sp].d(A)[sp].d(T)[sp].d(T)[sp].d([m5C])[sp].d([m5C])[sp].d(A)[sp].d([m5C])[sp].d(T)[sp].d(T)[sp].[moe](T)p.[moe]([m5C])p.[moe](T)[sp].[moe]([m5C])}$$$$ (last 3' nucleoside missing)”, with 0 score 0-7.
Take “RNA1{[moe]([m5C])[sp].[moe]([m5C])p.[moe](A)p.[moe](A)p.[moe](G)[sp].d(T)[sp].d(A)[sp].d(T)[sp].d(T)[sp].d(T)[sp].d(T)[sp].d([m5C])[sp].d([m5C])[sp].d(T)[sp].d(G)[sp].[moe]([m5C])p.[moe](A)p.[moe](T)[sp].[moe]([m5C])}$$$$ (last 3' nucleoside missing)”: the 3 h FOB score amounted to 0 score 0-7.
With “RNA1{[moe]([m5C])[sp].[moe]([m5C])p.[moe](A)p.[moe](T)p.[moe]([m5C])[sp].d(T)[sp].d(T)[sp].d(T)[sp].d(A)[sp].d(T)[sp].d(T)[sp].d([m5C])[sp].d(T)[sp].d(A)[sp].d(T)[sp].[moe](G)p.[moe](A)p.[moe](G)[sp].[moe]([m5C])}$$$$ (last 3' nucleoside missing)”, the 3 h FOB score amounted to 0.75 score 0-7.
For the substance “RNA1{[moe]([m5C])[sp].[moe]([m5C])p.[moe](A)p.[moe](T)p.[moe]([m5C])[sp].d(T)[sp].d(T)[sp].d([m5C])[sp].d(A)[sp].d([m5C])[sp].d(T)[sp].d(T)[sp].d([m5C])[sp].d(A)[sp].d(G)[sp].[moe](A)p.[moe](G)p.[moe](A)[sp].[moe](T)}$$$$ (last 3' nucleoside missing)”, the 3 h FOB score turned out to be 0.5 score 0-7.
In turn, “RNA1{[moe]([m5C])[sp].[moe]([m5C])p.[moe](A)p.[moe]([m5C])p.[moe](G)[sp].d(A)[sp].d([m5C])[sp].d([m5C])[sp].d(T)[sp].d(T)[sp].d(A)[sp].d([m5C])[sp].d(A)[sp].d([m5C])[sp].d(T)[sp].[moe](A)p.[moe](G)p.[moe](G)[sp].[moe](T)}$$$$ (last 3' nucleoside missing)” registered a 3 h FOB score of 0 score 0-7.
On to “RNA1{[moe]([m5C])[sp].[moe]([m5C])p.[moe](T)p.[moe](T)p.[moe](G)[sp].d([m5C])[sp].d(T)[sp].d(A)[sp].d(T)[sp].d(T)[sp].d([m5C])[sp].d(A)[sp].d(T)[sp].d(T)[sp].d(T)[sp].[moe](T)p.[moe](T)p.[moe]([m5C])[sp].[moe](A)}$$$$ (last 3' nucleoside missing)”, for which the 3 h FOB score turned out to be 0 score 0-7.

(Values after the OligoGym collection.)
